We go through six compounds from patent publication US6060482A, “Triazaspirodecanone-methylchromans” (Bayer Aktiengesellschaft, priority 1991, dated 2000).

Structures can show the parent of a compound that is named as a salt.

One test concerns the target 5-HT1 receptor. Description: Affinity for the 5-HT1 receptor, receptor binding studies with 3H-serotonin on calf hippocampus membrane preparations. From the text: Affinity for the 5-HT1 receptor
In Table 1, the high affinity of the compounds according to the invention for 5-hydroxytryptamine receptors of the subtype 1 is represented by way of example. The values given are data which have been determined from receptor binding studies using calf hippocampus membrane preparations. The radioactively labelled ligand used for this was ^3 H-serotonin.

The next test deals with T1, 5-HT1A receptor (Bos taurus, UniProt F6Q2H9).
T1 construct: 5-HT1A receptors in calf hippocampus membranes; from tissue; host or cells: calf hippocampus membranes
T1 sequence (F6Q2H9 1-422): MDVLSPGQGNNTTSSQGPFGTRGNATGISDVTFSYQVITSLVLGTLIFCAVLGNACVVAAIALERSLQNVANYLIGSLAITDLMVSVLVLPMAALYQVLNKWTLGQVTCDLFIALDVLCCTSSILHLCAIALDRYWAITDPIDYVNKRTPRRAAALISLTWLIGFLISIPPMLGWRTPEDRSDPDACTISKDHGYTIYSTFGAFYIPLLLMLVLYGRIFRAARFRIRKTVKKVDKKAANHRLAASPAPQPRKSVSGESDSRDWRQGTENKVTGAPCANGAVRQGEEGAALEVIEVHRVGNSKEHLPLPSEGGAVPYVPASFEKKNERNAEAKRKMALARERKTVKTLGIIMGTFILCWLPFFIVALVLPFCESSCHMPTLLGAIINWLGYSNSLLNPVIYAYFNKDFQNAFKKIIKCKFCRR
Description: Affinity for the 5-HT1A receptor, binding of 3H-ipsapirone in calf hippocampus membranes. The protocol:
Affinity for the 5-HT1A receptor
[W. U. Dompert et al., Naunyn-Schmiedeberg's Arch. Pharmacol. (1985), 328, 467-470].
In this test, the binding of ^3 H-ipsapirone to 5-HT1A receptors in calf hippocampus membranes is measured.

The next test deals with T2, dopamine D2 receptor (Rattus norvegicus, UniProt P61169).
T2 construct: membranes from the striatum of the rat; from tissue; host or cells: rat striatum membranes
T2 sequence (P61169 whole entry): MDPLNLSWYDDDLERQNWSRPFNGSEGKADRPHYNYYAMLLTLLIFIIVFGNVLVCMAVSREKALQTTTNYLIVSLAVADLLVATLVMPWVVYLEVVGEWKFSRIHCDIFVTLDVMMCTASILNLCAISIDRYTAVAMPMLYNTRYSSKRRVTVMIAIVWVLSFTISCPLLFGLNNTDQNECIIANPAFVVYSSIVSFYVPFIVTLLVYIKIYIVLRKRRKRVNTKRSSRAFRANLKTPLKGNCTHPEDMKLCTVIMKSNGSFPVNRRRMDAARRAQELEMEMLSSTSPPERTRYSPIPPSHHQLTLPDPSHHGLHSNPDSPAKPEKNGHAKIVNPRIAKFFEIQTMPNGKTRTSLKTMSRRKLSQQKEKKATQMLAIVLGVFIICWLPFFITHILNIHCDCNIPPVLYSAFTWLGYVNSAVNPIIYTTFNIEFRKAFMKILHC
The experiment in a line: Dopamine D2 receptor test, binding of 3H-sulpiride on membranes from the striatum of the rat. The following applies: Ki calculated from IC50 of displacement curves. The method, then:
Dopamine D2 receptor test
This test is carried out according to the following reference: Imafuku J. (1987), Brain Research 402; 331-338.
In this test, the binding of the selective D2 -receptor antagonist ^3 H-sulpiride on membranes from the striatum of the rat is measured. Compounds which bind to dopamine D2 -receptors inhibit the binding of ^3 H-sulpiride in a concentration-dependent manner. IC50 values are determined from the displacement curves and the inhibition constants Ki are calculated from these.

The Ki is the dissociation constant of the complex between target and ligand, obtained from inhibition or displacement. At 5-HT1 receptor, `O=C1NCN(c2ccccc2)C12CCN(C[C@H]1CCc3ccccc3O1)CC2` [Example 4] gave a Ki of 1 nM.
`O=C1NCN(c2ccccc2)C12CCN(CC1CCc3ccccc3O1)CC2` (centres unmarked) [Example 5, 8-(Chroman-2-yl-methyl)-1-phenyl-1,3,8-triazaspiro[4.5]-decan-4-one HCl salt] displayed a Ki on 5-HT1A receptor of 1 nM.
As to `O=C1NCN(c2ccccc2)C12CCN(C[C@@H]1CCc3ccccc3O1)CC2` [Example 3], the Ki on dopamine D2 receptor was 0.6 nM.
Turning to `COc1cccc2c1OC(CN1CCC3(CC1)C(=O)NCN3c1ccccc1)CC2` (centres unmarked) [Example 6], the Ki at 5-HT1A receptor was 1 nM.
As for `COc1cccc2c1OC(CN1CCC3(CC1)C(=O)NCN3c1ccccc1)CC2` (centres unmarked) [Example 2], the Ki was 1.5 nM at 5-HT1 receptor and 0.3 nM on dopamine D2 receptor.
For `O=C1NCN(c2ccccc2)C12CCN(CC1CCc3ccccc3O1)CC2` (centres unmarked) [Example 1, 8-(Chroman-2-yl-methyl)-1-phenyl-1,3,8-triazaspiro[4.5]-decan-4-one], the Ki at 5-HT1 receptor was 2 nM; at dopamine D2 receptor it was 0.2 nM.
